In US20250074901A1, “NOVEL HETEROARYL COMPOUNDS” (ICAGEN, LLC, priority 2021, published 2025):

Target: T1, Kv7.2 (Homo sapiens, UniProt O43526)
T1 construct: expressed in transfected cells
Assay: Activation of Kv7.2 (in vitro assay, concentration response curve)
Assay type: cell-based
Conditions: for Emax: Kv7.2 activation max %; for EC50: activation of Kv7.2
Outline: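 EC50 is the half-maximal effective concentration, relative to the Emax observed for each compound in this in vitro assay. It was derived from concentration–response curves of the agonistic effect measured over a series of concentrations.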

Structure (SMILES)	Emax [%]	EC50 [nM]
CC1CC(NC(=O)NCc2ccnc(OC(F)F)c2)C1 (stereo not drawn) [Example 65, 1-[[2-(difluoromethoxy)pyridin-4-yl]methyl]-3-(3-methylcyclobutyl)urea]	76	450
C#CC1CC(NC(=O)NCc2ccnc(OC(F)F)c2)C1 (stereo not drawn) [Example 66, 1-[[2-(difluoromethoxy)pyridin-4-yl]methyl]-3-(3-ethynylcyclobutyl) urea]	56	530
O=C(NCc1ccnc(OC(F)F)c1)N[C@H]1C[C@H](F)C1 [Example 67, 1-[[2-(difluoromethoxy)pyridin-4-yl]methyl]-3-((1r,3r)-3-fluorocyclobutyl)urea]	52	1870
O=C(NCc1ccnc(OC(F)F)c1)NC12CCC(C(F)(F)F)(CC1)CC2 [Example 68, 1-[[2-(difluoromethoxy)pyridin-4-yl]methyl]-3-[4-(trifluoromethyl)-1-bicyclo[2.2.2]octanyl]urea]	66	2550
O=C(NCc1ccnc(OCC(F)(F)F)c1)NCC1CC(C(F)(F)F)C1 (stereo not drawn) [Example 71, 1-[[2-(2,2,2-trifluoroethoxy)pyridin-4-yl]methyl]-3-[[3-(trifluoromethyl)cyclobutyl]methyl]urea]	53	230
O=C(NCc1ccnc(OCC(F)(F)F)c1)NCC12CC(F)(C1)C2 [Example 75, 1-[(3-fluoro-1-bicyclo[1.1.1]pentanyl)methyl]-3-[[2-(2,2,2-trifluoroethoxy)pyridin-4-yl]methyl]urea]	40	600
O=C(NCc1ccnc(OC(F)F)c1)N[C@@H]1CC[C@H]2CCC[C@H]21 [Example 76, 1-[(1R,3aR,6aR)-1,2,3,3a,4,5,6,6a-octahydropentalen-1-yl]-3-[[2-(difluoromethoxy)pyridin-4-yl]methyl]urea]	79	20
O=C(NCc1ccnc(OC(F)F)c1)NC1CC(C2CC2)C1 (stereo not drawn) [Example 77, 1-(3-cyclopropylcyclobutyl)-3-[[2-(difluoromethoxy)pyridin-4-yl]methyl]urea]	62	90
O=C(NCc1ccnc(OC(F)F)c1)NC1CC2CCCC2C1 (stereo not drawn) [Example 78, 1-(1,2,3,3a,4,5,6,6a-octahydropentalen-2-yl)-3-[[2-(difluoromethoxy)pyridin-4-yl]methyl]urea]	62	20
O=C(NCc1ccnc(OC(F)F)c1)NC12CCC(F)(CC1)CC2O (stereo not drawn) [Example 82, 1-[[2-(difluoromethoxy)pyridin-4-yl]methyl]-3-(4-fluoro-2-hydroxy-1-bicyclo[2.2.2]octanyl)urea]	48	1030
COc1cccc(NC(=O)NCc2ccnc(OC(F)F)c2)c1 [Example 83, 1-[[2-(difluoromethoxy)pyridin-4-yl]methyl]-3-(3-methoxyphenyl)urea]	45	2470
O=C(NCc1ccnc(OC(F)F)c1)Nc1cccc(Cl)n1 [Example 84, 1-(6-chloropyridin-2-yl)-3-[[2-(difluoromethoxy)pyridin-4-yl]methyl]urea]	42	210
O=C(NC(CO)c1ccnc(OC(F)F)c1)NC12CCC(F)(CC1)CC2 (stereo not drawn) [Example 85, 1-[1-[2-(difluoromethoxy)pyridin-4-yl]-2-hydroxyethyl]-3-(4-fluoro-1-bicyclo[2.2.2]octanyl)urea]	74	420
O=C(NCc1ccnc(OC(F)F)c1)NC[C@H]1C[C@@H](C(F)(F)F)C1 [Example 87, 1-[[2-(difluoromethoxy)pyridin-4-yl]methyl]-3-[[3-(1r,3r)-(trifluoromethyl)cyclobutyl]methyl]urea]	40	850
CC(F)COc1cc(CNC(=O)NC23CCC(F)(CC2)CC3)ccn1 (stereo not drawn) [Example 88, 1-(4-fluoro-1-bicyclo[2.2.2]octanyl)-3-[[2-(2-fluoropropoxy)pyridin-4-yl]methyl]urea]	43	440
O=C(NCc1ccnc(OC(F)F)c1)NCC1CC(F)C1 (stereo not drawn) [Example 89, 1-[[2-(difluoromethoxy)pyridin-4-yl]methyl]-3-[(3-fluorocyclobutyl)methyl]urea]	46	1040
O=C(NCc1ccnc(OC(F)F)c1)NC1CCC(F)(F)CC1 [Example 90, 1-(4,4-difluorocyclohexyl)-3-[[2-(difluoromethoxy)pyridin-4-yl]methyl]urea]	62	180
O=C(NC(CO)c1ccnc(OC(F)F)c1)N[C@H]1C[C@H](C(F)(F)F)C1 (stereo partly drawn) [Example 91, 1-[1-[2-(difluoromethoxy)pyridin-4-yl]-2-hydroxyethyl]-3-[(1r,3r)-3-(trifluoromethyl)cyclobutyl]urea]	82	1260
O=C(Nc1cccc(Cl)c1)NC(CO)c1ccnc(OCC(F)(F)F)c1 (stereo not drawn) [Example 92, 1-(3-chlorophenyl)-3-[2-hydroxy-1-[2-(2,2,2-trifluoroethoxy)pyridin-4-yl]ethyl]urea]	64	180
O=C(NCc1ccnc(OC(F)F)c1)NC1CCC(F)(F)C1 (stereo not drawn) [Example 93, 1-(3,3-difluorocyclopentyl)-3-[[2-(difluoromethoxy)pyridin-4-yl]methyl]urea]	56	450

Structure (SMILES)	Emax [%]	EC50 [nM]
CC(C)(C)C(O)CNC(=O)NCc1ccnc(OC(F)F)c1 (stereo not drawn) [Example 95, 1-[[2-(difluoromethoxy)pyridin-4-yl]methyl]-3-(2-hydroxy-3,3-dimethylbutyl)urea]	43	1160
O=C(NCc1ccnc(OC(F)F)c1)Nc1nccc(Cl)n1 [Example 96, 1-(4-chloropyrimidin-2-yl)-3-[[2-(difluoromethoxy)pyridin-4-yl]methyl]urea]	85	7220
O=C(Nc1cccc(Cl)c1)NC(CO)c1ccnc(OC(F)F)c1 (stereo not drawn) [Example 97, 1-(3-chlorophenyl)-3-[1-[2-(difluoromethoxy)pyridin-4-yl]-2-hydroxyethyl]urea]	55	80
O=C(NCc1ccnc(OC(F)F)c1)Nc1cncc(Cl)n1 [Example 98, 1-(6-chloropyrazin-2-yl)-3-[[2-(difluoromethoxy)pyridin-4-yl]methyl]urea]	48	810
O=C(NCc1ccnc(OC(F)F)c1)N[C@H]1C[C@](O)(C(F)(F)F)C1 [Example 100, 1-[[2-(difluoromethoxy)pyridin-4-yl]methyl]-3-[(1s,3s)-3-hydroxy-3-(trifluoromethyl)cyclobutyl]urea]	40	3660
O=C(NCc1ccnc(OC(F)F)c1)N[C@H]1CC[C@@H]2CCC[C@@H]21 [Example 103, 1-[(1S,3aS,6aS)-1,2,3,3a,4,5,6,6a-octahydropentalen-1-yl]-3-[[2-(difluoromethoxy)pyridin-4-yl]methyl]urea]	71	30
O=C(NCc1ccnc(OC(F)F)c1)N[C@H]1C[C@H]2CCC[C@H]2C1 [Example 105]	78	40
O=C(NCc1ccnc(OC(F)F)c1)NC(C1CC1)C(F)(F)F (stereo not drawn) [Example 106, 1-(1-cyclopropyl-2,2,2-trifluoroethyl)-3-[[2-(difluoromethoxy)pyridin-4-yl]methyl]urea]	47	820
O=C(NCc1ccnc(OC(F)F)c1)NC1CC(F)(F)C1 [Example 108, 1-(3,3-difluorocyclobutyl)-3-[[2-(difluoromethoxy)pyridin-4-yl]methyl]urea]	51	2080
CC(C)(C)CCNC(=O)NCc1ccnc(OC(F)F)c1 [Example 109, 1-[[2-(difluoromethoxy)pyridin-4-yl]methyl]-3-(3,3-dimethylbutyl)urea]	51	300
O=C(NCc1ccnc(OC(F)F)c1)NC1(CC(F)(F)F)CC1 [Example 110, 1-[[2-(difluoromethoxy)pyridin-4-yl]methyl]-3-[1-(2,2,2-trifluoroethyl)cyclopropyl]urea]	40	1230
O=C(NCc1ccnc(OC(F)F)c1)NC1CCCC1(F)F (stereo not drawn) [Example 113, 1-(2,2-difluorocyclopentyl)-3-[[2-(difluoromethoxy)pyridin-4-yl]methyl]urea]	77	3490
O=C(NCc1ccnc(OC(F)F)c1)NN1CC2CCCC2C1 (stereo not drawn) [Example 114, 1-(3,3a,4,5,6,6a-hexahydro-1H-cyclopenta[c]pyrrol-2-yl)-3-[[2-(difluoromethoxy)pyridin-4-yl]methyl]urea]	68	7430
O=C(NCc1ccnc(OC(F)F)c1)N[C@@H]1CCC(F)(F)C1 [Example 115, 1-[(1R)-3,3-difluorocyclopentyl]-3-[[2-(difluoromethoxy)pyridin-4-yl]methyl]urea]	48	330
O=C(NCc1ccnc(OC(F)F)c1)N[C@H]1CCC(F)(F)C1 [Example 116, 1-[(1S)-3,3-difluorocyclopentyl]-3-[[2-(difluoromethoxy)pyridin-4-yl]methyl]urea]	58	320
O=C(NC(CCO)c1ccnc(OC(F)F)c1)N[C@H]1C[C@H](C(F)(F)F)C1 (stereo partly drawn) [Example 117, 1-[1-[2-(difluoromethoxy)pyridin-4-yl]-3-hydroxypropyl]-3-[(1r,3r)-3-(trifluoromethyl)cyclobutyl]urea]	94	1900
COC(CNC(=O)NCc1ccnc(OC(F)F)c1)C(F)(F)F (stereo not drawn) [Example 119, 1-[[2-(difluoromethoxy)pyridin-4-yl]methyl]-3-(3,3,3-trifluoro-2-methoxypropyl)urea]	41	1600
CC(F)(F)COc1cc(CNC(=O)N[C@H]2C[C@H](C(F)(F)F)C2)ccn1 [Example 121, 1-[[2-(2,2-difluoropropoxy)pyridin-4-yl]methyl]-3-[(1r,3r)-3-(trifluoromethyl)cyclobutyl]urea]	62	120
CC(F)(F)COc1cc(CNC(=O)NC23CCC(F)(CC2)CC3)ccn1 [Example 122, 1-[[2-(2,2-difluoropropoxy)pyridin-4-yl]methyl]-3-(4-fluoro-1-bicyclo[2.2.2]octanyl)urea]	61	190
